Consider 18 molecules from the supplement of paper PMC10627819.

Assay in all cases: Bliss interaction score (quartile over a dose matrix) (fitness difference); higher = more antagonism (negative = synergy)
The subject of one experiment is S. aureus Newman. The method in brief:
(§1)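 Values were capped at 1 after dividing OD595 at stationary-phase entry by the plate's robust no-drug mean. This ratio is fitness, and single-drug fitness was inferred from the combination data. The Bliss score is observed minus product-expected fitness, given as quartiles over technical, biological and donor/recipient replicates.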

For another experiment, the system named is S. pneumoniae D39V. In outline: as §1
A further experiment deals with B. subtilis 168. The method in brief:
as §1

The test system of another experiment is S. aureus DSM 20231. In outline:
as §1
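Further: first quartile when negative (synergy) and third quartile when positive (antagonism).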

Regarding `O=C(O)[C@H]1/C(=C/CO)O[C@@H]2CC(=O)N21` [Clavulanic] + CCCCCCCCCC(=O)N[C@@H]1[C@H]([C@@H]([C@H](O[C@H]1OC2=C3C=C4C=C2OC5=C(C=C(C=C5)[C@H]([C@H]6C(=O)N[C@@H](C7=C(C(=CC(=C7)O)OC8[C@H]([C@H]([C@@H]([C@H](O8)CO)O)O)O)C9=C(C=CC(=C9)[C@H](C(=O)N6)NC(=O)[C@@H]4NC(=O)[C@@H]1C2=CC(=CC(=C2)OC2=C(C=CC(=C2)[C@H](C(=O)N[C@H](CC2=CC(=C(O3)C=C2)Cl)C(=O)N1)N)O)O)O)C(=O)O)O[C@H]1[C@@H]([C@H]([C@@H]([C@H](O1)CO)O)O)NC(=O)C)Cl)CO)O)O [Teicoplanin], the Bliss interaction score was -0.059 with S. aureus Newman (main component drawn), -0.0601 in the experiment with S. pneumoniae D39V (main component drawn), -0.178 with B. subtilis 168 (main component drawn) and 0.119 in the experiment with S. aureus DSM 20231 (main component drawn).

Consider `O=C(O)[C@H]1/C(=C/CO)O[C@@H]2CC(=O)N21` [Clavulanic] + CCC[C@@H]1C[C@@H](C(=O)N[C@@H]([C@H]2O[C@H](SC)[C@H](O)[C@@H](O)[C@H]2O)[C@@H](C)O)N(C)C1 [Lincomycin], for which the Bliss interaction score in the experiment on S. aureus Newman is 0.132; in the experiment on S. pneumoniae D39V, 0.0627; in the experiment with B. subtilis 168 it was -0.0568; with S. aureus DSM 20231, -0.194.

For the molecule `O=C(O)[C@H]1/C(=C/CO)O[C@@H]2CC(=O)N21` [Clavulanic] + CCC[C@@H]1C[C@@H](C(=O)N[C@@H]([C@H]2O[C@H](SC)[C@H](O)[C@@H](O)[C@H]2O)[C@H](C)Cl)N(C)C1 [Clindamycin], the Bliss interaction score with S. aureus Newman was 0.188; in the experiment on S. pneumoniae D39V it was -0.0802; with B. subtilis 168, -0.0975; in the experiment on S. aureus DSM 20231 it was -0.148.

For `O=C(O)[C@H]1/C(=C/CO)O[C@@H]2CC(=O)N21` [Clavulanic] + CCN(CC)CCOC(=O)c1ccc(N)cc1 [Procaine], the Bliss interaction score in the experiment on S. aureus Newman is -0.0729; with S. pneumoniae D39V, 0.0863; in the experiment on B. subtilis 168, -0.0363; with S. aureus DSM 20231, 0.0977.

On to `O=C(O)[C@H]1/C(=C/CO)O[C@@H]2CC(=O)N21` [Clavulanic] + CC[C@H]1OC(=O)[C@H](C)C(=O)[C@H](C)[C@@H](O[C@@H]2O[C@H](C)C[C@H](N(C)C)[C@H]2O)[C@](C)(OC)C[C@@H](C)C(=O)[C@H](C)[C@H]2N(CCCCn3cnc(-c4cccnc4)c3)C(=O)O[C@]12C [Telithromycin], for which the Bliss interaction score was 0.122 in the experiment with S. aureus Newman, -0.0431 with S. pneumoniae D39V, 0.0437 in the experiment on B. subtilis 168 and -0.0742 in the experiment with S. aureus DSM 20231.

As for `O=C(O)[C@H]1/C(=C/CO)O[C@@H]2CC(=O)N21` [Clavulanic] + CC[C@H]1OC(=O)[C@H](C)[C@@H](O[C@H]2C[C@@](C)(OC)[C@@H](O)[C@H](C)O2)[C@H](C)[C@@H](O[C@@H]2O[C@H](C)C[C@H](N(C)C)[C@H]2O)[C@](C)(O)C[C@@H](C)C(=O)[C@H](C)[C@@H](O)[C@]1(C)O [Erythromycin], the Bliss interaction score is 0.237 in the experiment with S. aureus Newman, -0.0371 in the experiment with S. pneumoniae D39V, 0.0508 in the experiment on B. subtilis 168 and -0.151 in the experiment with S. aureus DSM 20231.

As for `O=C(O)[C@H]1/C(=C/CO)O[C@@H]2CC(=O)N21` [Clavulanic] + CN1C2=CC=CC=C2N=C3C1=CC=CC3=O [Pyocyanin], the Bliss interaction score is 0.0849 with S. aureus Newman, 0.0705 in the experiment with S. pneumoniae D39V, 0.0338 with B. subtilis 168 and -0.0632 with S. aureus DSM 20231.

Take `O=C(O)[C@H]1/C(=C/CO)O[C@@H]2CC(=O)N21` [Clavulanic] + CN(C)C(=O)C(CCN1CCC(O)(c2ccc(Cl)cc2)CC1)(c1ccccc1)c1ccccc1 [Loperamide]: the Bliss interaction score in the experiment with S. aureus Newman is 0.209; in the experiment on S. pneumoniae D39V, 0.0637; in the experiment on B. subtilis 168, 0.389; in the experiment with S. aureus DSM 20231, -0.361.

Turning to `O=C(O)[C@H]1/C(=C/CO)O[C@@H]2CC(=O)N21` [Clavulanic] + CN(C)[C@@H]1C(O)=C(C(N)=O)C(=O)[C@@]2(O)C(O)=C3C(=O)c4c(O)ccc(Cl)c4[C@@](C)(O)[C@H]3C[C@@H]12 [Clortetracycline], the Bliss interaction score in the experiment with S. aureus Newman was 0.161; with S. pneumoniae D39V, -0.0427; in the experiment with B. subtilis 168, 0.0785; in the experiment on S. aureus DSM 20231, -0.24.

Regarding `O=C(O)[C@H]1/C(=C/CO)O[C@@H]2CC(=O)N21` [Clavulanic] + CN(C)c1cc(NC(=O)CNC(C)(C)C)c(O)c2c1C[C@H]1C[C@H]3[C@H](N(C)C)C(O)=C(C(N)=O)C(=O)[C@@]3(O)C(O)=C1C2=O [Tigecycline], the Bliss interaction score in the experiment with S. aureus Newman was -0.0659; in the experiment with S. pneumoniae D39V, 0.0386; in the experiment on B. subtilis 168 it was 0.0342; with S. aureus DSM 20231, 0.0703.

As for `O=C(O)[C@H]1/C(=C/CO)O[C@@H]2CC(=O)N21` [Clavulanic] + CN(N=O)C(=O)N[C@@H](C=O)[C@@H](O)[C@H](O)[C@H](O)CO [Streptozotocin], the Bliss interaction score in the experiment on S. aureus Newman is 0.197; in the experiment on S. pneumoniae D39V, 0.059; in the experiment with B. subtilis 168 it was -0.0541; in the experiment with S. aureus DSM 20231 it was -0.0853.

For `O=C(O)[C@H]1/C(=C/CO)O[C@@H]2CC(=O)N21` [Clavulanic] + CN[C@@H]1[C@H](O)[C@H](NC)[C@H]2O[C@@]3(O)C(=O)C[C@@H](C)O[C@H]3O[C@@H]2[C@H]1O [Spectinomycin], the Bliss interaction score with S. aureus Newman is 0.104; in the experiment on S. pneumoniae D39V, -0.0465; in the experiment on B. subtilis 168, 0.0479; in the experiment with S. aureus DSM 20231, 0.137.

On to `O=C(O)[C@H]1/C(=C/CO)O[C@@H]2CC(=O)N21` [Clavulanic] + CN[C@H](CC(C)C)C(=O)N[C@H]1C(=O)N[C@@H](CC(N)=O)C(=O)N[C@H]2C(=O)N[C@H]3C(=O)N[C@H](C(=O)N[C@H](C(=O)O)c4cc(O)cc(O)c4-c4cc3ccc4O)[C@H](O)c3ccc(c(Cl)c3)Oc3cc2cc(c3O[C@@H]2O[C@H](CO)[C@@H](O)[C@H](O)[C@H]2O[C@H]2C[C@](C)(N)[C@H](O)[C@H](C)O2)Oc2ccc(cc2Cl)[C@H]1O [Vancomycin], for which the Bliss interaction score in the experiment with S. aureus Newman was -0.0409; in the experiment with S. pneumoniae D39V it was -0.0704; in the experiment with B. subtilis 168, -0.136; in the experiment on S. aureus DSM 20231 it was 0.0812.

As to `O=C(O)[C@H]1/C(=C/CO)O[C@@H]2CC(=O)N21` [Clavulanic] + CN[C@H](CC(C)C)C(=O)N[C@H]1C(=O)N[C@@H](CC(N)=O)C(=O)N[C@H]2C(=O)N[C@H]3C(=O)N[C@H](C(=O)N[C@H](C(=O)O)c4cc(O)cc(O)c4-c4cc3ccc4O)[C@H](O[C@H]3C[C@](C)(N)[C@@H](O)[C@H](C)O3)c3ccc(c(Cl)c3)Oc3cc2cc(c3O[C@@H]2O[C@H](CO)[C@@H](O)[C@H](O)[C@H]2O[C@H]2C[C@](C)(NCc3ccc(-c4ccc(Cl)cc4)cc3)[C@@H](O)[C@H](C)O2)Oc2ccc(cc2Cl)[C@H]1O [Oritavancin], the Bliss interaction score in the experiment on S. aureus Newman was 0.197; in the experiment with S. pneumoniae D39V it was 0.0545; in the experiment with B. subtilis 168, -0.0388; in the experiment with S. aureus DSM 20231 it was 0.0726.

For `O=C(O)[C@H]1/C(=C/CO)O[C@@H]2CC(=O)N21` [Clavulanic] + CO[C@@H]1[C@@H](OC(N)=O)[C@@H](O)[C@H](Oc2ccc3c(O)c(NC(=O)c4ccc(O)c(CC=C(C)C)c4)c(=O)oc3c2C)OC1(C)C [Novobiocin], the Bliss interaction score in the experiment with S. aureus Newman is 0.177; in the experiment with S. pneumoniae D39V, -0.0784; in the experiment on B. subtilis 168, 0.0384; in the experiment with S. aureus DSM 20231, 0.116.

`O=C(O)[C@H]1/C(=C/CO)O[C@@H]2CC(=O)N21` [Clavulanic] + CO[C@@]12[C@H](COC(N)=O)C3=C(C(=O)C(C)=C(N)C3=O)N1C[C@@H]1N[C@@H]12 [MitomycinC]: the Bliss interaction score in the experiment with S. aureus Newman was 0.129; in the experiment with S. pneumoniae D39V, -0.0718; in the experiment on B. subtilis 168, -0.113; in the experiment on S. aureus DSM 20231, -0.0996.

For `O=C(O)[C@H]1/C(=C/CO)O[C@@H]2CC(=O)N21` [Clavulanic] + CO[C@H]1/C=C/O[C@@]2(C)Oc3c(C)c(O)c4c(O)c(c(/C=N/N5CCN(C)CC5)c(O)c4c3C2=O)NC(=O)/C(C)=C\C=C\[C@H](C)[C@H](O)[C@@H](C)[C@@H](O)[C@@H](C)[C@H](OC(C)=O)[C@@H]1C [Rifampicin], the Bliss interaction score in the experiment with S. aureus Newman is -0.0368; in the experiment on S. pneumoniae D39V, -0.0766; with B. subtilis 168 it was 0.0612; in the experiment with S. aureus DSM 20231, 0.112.

As for `O=C(O)[C@H]1/C(=C/CO)O[C@@H]2CC(=O)N21` [Clavulanic] + COc1c(N2C[C@@H]3CCCN[C@@H]3C2)c(F)cc2c(=O)c(C(=O)O)cn(C3CC3)c12 [Moxifloxacin], the Bliss interaction score in the experiment with S. aureus Newman was 0.218; in the experiment with S. pneumoniae D39V, 0.062; with B. subtilis 168, -0.0241; in the experiment with S. aureus DSM 20231 it was -0.0739.
